Five compounds from publication PMC6385020 (Molecules, 2019) can be followed below.

pIC50: −log10 of the molar value. A value given as a limit tells only on which side of the number the result lay.

The subject of test [1] is 21CTA (DNA, G4) AGGGCTAGGGCTAGGGCTAGGG
Description: G4-FID, thiazole orange displacement. The note with it: 100 mM KCl; 10 mM lithium cacodylate pH 7.3, 1% DMSO; thiazole orange displaced; 1 µM compound, 0.25 µM DNA.

The subject of test [2] is c-myc (myc22) (DNA, G4) TGAGGGTGGGTAGGGTGGGTAA
The test is described as follows: G4-FID, thiazole orange displacement. The note with it: 100 mM KCl; 10 mM lithium cacodylate pH 7.3, 1% DMSO; thiazole orange displaced; 1 µM compound, 0.25 µM DNA.

Test [3] relates to 22AG (DNA, G4) AGGGTTAGGGTTAGGGTTAGGG
The test is described as follows: G4-FID, thiazole orange displacement. The note with it: 100 mM KCl; 10 mM lithium cacodylate pH 7.3, 1% DMSO; thiazole orange displaced; 1 µM compound, 0.25 µM DNA.

Test [4] concerns CEB25-WT minisatellite sequence G4. The test is described as follows: PhenDV G4-FID assay. Type of test: binding. The note with it: PhenDV 1.5 eq, K+100 buffer. How it is done:
(§1) For the G4-FID assay, the oligonucleotides were dissolved in K^+100 buffer (10 mM lithium cacodylate buffer pH 7.3, 100 mM KCl, 1% DMSO). Oligonucleotide concentrations were determined on the basis of their absorbance at 260 nm. For the fluorimetric titration, the oligonucleotides were dissolved in K^+100 buffer without DMSO. For the FRET-melting assay, the oligonucleotides were dissolved in K^+1 buffer (10 mM lithium cacodylate buffer pH 7.3, 1 mM KCl, 99 mM LiCl) except for F-21-T. F-21-T was dissolved in K^+10 buffer (10 mM lithium cacodylate buffer pH 7.3, 10 mM KCl, 90 mM LiCl).
(§2) Prior to use, all oligonucleotides were pretreated by heating at 95 °C for 5 min, then rapidly cooled to 4 °C to favor the intramolecular folding by kinetic trapping. Duplex-DNA ds26 was prepared by heating the self-complementary strand at 90 °C for 5 min in K^+1 buffer followed by a slow cooling over 6 h.
(§3) Each G4-FID assay was performed in a 96-well Non-Binding Surface black with black bottom polystyrene microplates (Corning). Every ligand was tested on a line of the microplate, in duplicate. The microplate was filled with (a) K^+100 solution (qs for 200 μL), (b) 10 μL of a solution of pre-folded oligonucleotides (5 μM) and fluorescent probe (TO/TO-PRO-3 (10 μM—2 eq) or PhenDV (7,5 µM—1.5 eq)), and (c) an extemporaneously prepared 5 μM ligand solution in K^+100 buffer (0 to 100 μL) along the line of the microplate, i.e., from column A to column H: 0, 0.125, 0.25, 0.375, 0.5, 0.625, 0.75, 1.0, 1.25, 1.5, 2.0, and 2.5 μM. After 5 min of orbital shaking at 500 rpm, fluorescence is measured using the following experimental parameters: positioning delay of 0.5 s, 20 flashes per well, emission/excitation filters for TO at 485/520, TO-PRO-3 at 620/670, and PhenDV at 355/520 gain adjusted at 80% of the fluorescence from the most fluorescent well (i.e., a well from column A for TO and a well from column H).
(§4) In the case of PhenDV, the fluorescence of the unbound probe is not negligible. The percentage of displacement becomes (2) % PhenDV Displacement=F−F0/Fligand+probe−F0
(§5) The PhenDV displacement is calculated from the fluorescence intensity F; F(ligand+probe), which refers to the fluorescence of the probe in presence of the ligand (without G4); and F0, which is the fluorescence without added ligand. The term F(ligand+probe) is necessary as the ligand can quench the fluorescence of the probe. The percentage of displacement is then plotted as a function of the concentration of the added ligand. The DNA affinity was evaluated by the concentration of ligand required to decrease the fluorescence of the probe by 50%, was noted DC50, and was determined after non-linear fitting of the displacement curve.

Test [5] relates to 22AG human telomeric sequence G4. Description: PhenDV G4-FID assay. The class given is binding. The conditions noted are these: PhenDV 1.5 eq, K+100 buffer. On the procedure: as §1, §2, §3, §4, §5
The test system of test [6] is c-myc G4. Description: PhenDV G4-FID assay. The class given is binding. The note with it: PhenDV 1.5 eq, K+100 buffer. How it is done: as §1, §2, §3, §4, §5
The subject of test [7] is 21CTA human telomeric sequence variant G4. Type of test: binding. The note with it: K+100 buffer; for % of TO displacement at 1 µM of ligand: TO 2 eq; for % of TOPRO3 displacement at 1 µM of ligand: TO-PRO-3 2 eq. How it is done:
as §1, §2, §3
(§6) The percentage of TO displacement is calculated from the fluorescence intensity (F), using (1) % TO displacement=1−F/F0 where F0 is the fluorescence from the fluorescent probe bound to DNA without added ligand.
as §5

In test [8] the test system is 22AG human telomeric sequence G4. The test is described as follows: TO-PRO-3 G4-FID assay. Type of test: binding. The note with it: TO-PRO-3 2 eq, K+100 buffer. How it is done:
as §1, §2, §3, §6, §5

In test [9] the test system is A2780cis cisplatin-resistant ovarian cancer cell line. Description: Cell growth (proliferation), 96 h treatment. The class given is cell-based, human. The conditions noted are these: 96 h treatment; for pIC50: A2780cis. On the procedure:
(§7) The ovarian carcinoma cell lines and human normal lung cells were purchased from ATCC and were grown in complete RPMI medium (ovarian) and DMEM (human lung cells) supplemented with 10% fetal calf serum, in the presence of penicillin, streptomycin. The resistance of A2780cis cells to cisplatin was maintained by monthly treatment with 1 µM cisplatin for 4 days. Concentrated stock solutions of complexes were conserved at −20 °C (DMSO/Water) and freshly diluted in water just before the experiments. Cells were treated with various concentrations of platinum complexes at 37 °C under humidity and 5% CO2 conditions for 96 h. Cellular growth was quantified using the particle counter MOXI (VWR).

The test system of test [10] is CCD19Lu normal lung cell line. Description: Cell growth (proliferation), 96 h treatment. The class given is cell-based, human. On the procedure:
as §7

The test system of test [11] is A2780 ovarian cancer cell line. The test is described as follows: Cell growth (proliferation), 96 h treatment. The class given is cell-based, human. The conditions noted are these: A2780, 96 h treatment. How it is done: as §7
Test [12] concerns CEB25-WT minisatellite sequence G4. Description: TO-PRO-3 G4-FID assay. Type of test: binding. The conditions noted are these: TO-PRO-3 2 eq, K+100 buffer. On the procedure:
as §1, §2, §3, §6, §5

For test [13], the system named is c-myc G4. The test is described as follows: TO-PRO-3 G4-FID assay. The class given is binding. The conditions noted are these: TO-PRO-3 2 eq, K+100 buffer. On the procedure:
as §1, §2, §3, §6, §5

In general, pIC50 refers to the IC50 on a negative log10 scale, so that one unit is a factor of ten. A lower pIC50 goes with a high IC50. As to `[Cl-].[Cl][Pt+].c1ccc(-c2cc(-c3ccc(OCCN4CCCC4)cc3)nc(-c3ccccn3)n2)nc1` [Pt-cpym, Chloro-(2,4-di(pyridin-2-yl)-6-(4-(2-(pyrrolidin-1-yl)ethoxy)phenyl)pyrimidine)-platinum(II) Chloride], the “% TO displacement” value in [1], in test [2] and in test [3] was under 60% each time. Further, the figures for the “% of PhenDV displacement at 1 µM of ligand” value (“% of PhenDV displacement” for short) (in [4]; in test [5]; in the test on c-myc G4 [6]) were 33%, 43% and 3%, respectively. Also, in test [7], the “% of TO displacement at 1 µM of ligand” value was found to be 82%. Also, the “% of TOPRO3 displacement at 1 µM of ligand” value (from here on “% of TOPRO3 displacement”) in [7] and in [8] was 25% in each case. In [9], the “Resistance Factor (IC50ratio A2780cis/A2780)” value is on record as 1.3. Besides, the pIC50 in test [9] was 5.30; in [10], 5.74; in test [11], 5.42.
Consider `CN(C)CCCNCc1ccc(-c2cc(-c3ccccn3)nc(-c3ccccn3)c2)cc1.[Cl-].[Cl][Pt+]` [Pt-ctpy], for which the “% TO displacement” value in [1], in test [2] and in test [3] was over 80% throughout. The figures for the “% of PhenDV displacement” value (in test [4]; in [5]; in the test on c-myc G4 [6]) were 72%, 84% and 29%, respectively. Also, in test [7], the “% of TO displacement at 1 µM of ligand” value is 93%. Further, the “% of TOPRO3 displacement” value worked out at 83% in test [7], 76% in test [12], 78% in test [8] and 58% in the test on c-myc G4 [13]. The “Resistance Factor (IC50ratio A2780cis/A2780)” value in test [9] is listed as 1.1. In addition, the pIC50 in [9] is 5.30; in test [10], 5.28; in test [11], 5.34.
Turning to `[Cl-].[Cl][Pt+].c1ccc(-c2cccc(-c3ccccn3)n2)nc1` [Pt-tpy], the entries for the “% of PhenDV displacement” value (in [4]; in test [5]; in the test with c-myc G4 [6]) were 13%, 24% and 5%, respectively. For the same compound, the “% of TO displacement at 1 µM of ligand” value in test [7] is 24%. The entries for the “% of TOPRO3 displacement” value (in test [7]; in test [8]; in the test with c-myc G4 [13]) were 23%, 12% and 32%, respectively. The “Resistance Factor (IC50ratio A2780cis/A2780)” value in test [9] was determined as 1.6. For the same compound, the results for the pIC50 in [9], in test [10] and in test [11] were 5.30, 5.52 and 5.52, respectively.
For the compound `Cc1ccc(-c2cc(-c3ccccn3)nc(-c3ccccn3)c2)cc1.[Cl-].[Cl][Pt+]` [Pt-ttpy], the “% TO displacement” value in test [1], in test [2] and in test [3] was over 80% throughout. Besides, the “% of PhenDV displacement” value in [4] came out at 45%; in test [5], 63%; in the test with c-myc G4 [6], 22%. For the same compound, the “% of TO displacement at 1 µM of ligand” value in [7] turned out to be 87%. Besides, the “% of TOPRO3 displacement” value in test [7] is recorded as 62%; in test [12], 62%; in test [8], 65%; in the test with c-myc G4 [13], 76%. The “Resistance Factor (IC50ratio A2780cis/A2780)” value in test [9] turned out to be 1.0. The pIC50 was 5.60 in [9], 5.76 in [10] and 5.60 in [11].
As to `CN(C)c1ccc(/C=C/c2cc(-c3ccccn3)nc(-c3ccccn3)n2)cc1.[Cl-].[Cl][Pt+]` [Pt-vpym, Chloro-(E)-4-(2-(2,6-di(pyridin-2-yl)pyrimidin-4-yl)vinyl)-N,N-dimethylaniline-platinum(II) Chloride], the “% of TOPRO3 displacement” value in [7] is recorded as 32%; in [12], 23%; in [8], 28%; in the test on c-myc G4 [13] it was 32%. Besides, the “Resistance Factor (IC50ratio A2780cis/A2780)” value in [9] stood at 0.6. Besides, the pIC50 is 6.40 in test [9], 6.15 in test [10] and 6.15 in test [11].
